We go through 39 molecules from patent US20130296311A1, “INHIBITORS OF HCV NS5A” (PRESIDIO PHARMACEUTICALS, INC., priority 2010, published 2013).

The subject of one assay is HCV 1b_Huh-Luc/Neo-ET cell line persistently expressing a bicistronic genotype 1b replicon in Huh 7 cells. The assay is described as follows: HCV replicon assay (luciferase readout, 72 h). The conditions noted are these: Hepatitis C virus, Huh-7, 72 h, read-out: Inhibition of HCV. It counts as cell-based, HCV genotype 1b. The method, boiled down:
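EC50 values come from a four-parameter fit of luciferase signal as % of untreated control, repeated across several determinations. The signal is from the HCV 1b_Huh-Luc/Neo-ET replicon line, dosed in triplicate one day post-plating and incubated 72 h before Bright-Glo readout.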
Consider `COC(=O)N[C@H](C(=O)N1CCC[C@H]1c1nc2ccc(C#Cc3ccc4nc([C@@H]5CCCN5C(=O)[C@@H](NC(=O)OC)C(C)C)[nH]c4c3)cc2[nH]1)C(C)C` [Compound 852], for which the EC50 is under 1 nM.

The same assay, now with this note: Hepatitis C virus, Huh-7, 72 h, read-out: Inhibition of HCV genotype 1b.
As for `CC(C)(C)OC(=O)N[C@@H](C(=O)N1CCC[C@H]1CNC(=O)c1ccc(C#Cc2ccc(-c3cnc([C@@H]4CCCN4C(=O)[C@H](NC(=O)OC(C)(C)C)c4ccccc4)[nH]3)cc2)cc1)c1ccccc1` [Compound 192], the EC50 is 1 to 9.9 nM. For the molecule `O=C(N[C@@H](C(=O)N1CCC[C@H]1c1ncc(-c2ccc3nc(C#Cc4ccc5nc([C@@H]6CCCN6C(=O)[C@H](NC(=O)OC6CCOCC6)c6ccccc6)[nH]c5c4)ccc3c2)[nH]1)c1ccccc1)OC1CCOCC1` [Compound 1110], the EC50 was under 1 nM.

Regarding `COC(=O)N[C@H](C(=O)N1C[C@H](F)C[C@H]1c1ncc(-c2ccc(C#Cc3ccc4nc([C@@H]5CCCN5C(=O)[C@@H](NC(=O)OC)C(C)C)[nH]c4c3)cc2)[nH]1)C(C)C` [Compound 1040], the EC50 is under 1 nM. On the same count and under the same terms, the figure for `O=C(N[C@@H](C(=O)N1CCC[C@H]1c1ncc(-c2ccc(C#Cc3ccc(-c4cnc([C@@H]5CCCN5C(=O)[C@H](NC(=O)N5CC[C@H](O)C5)c5ccccc5)[nH]4)cc3)cc2)[nH]1)c1ccccc1)N1CC[C@H](O)C1` [Compound 245] is under 1 nM; for `COC(=O)NCC(=O)N1CCC[C@H]1c1ncc(-c2ccc(C#Cc3ccc4nc([C@@H]5CCCN5C(=O)CNC(=O)OC)[nH]c4c3)cc2)[nH]1` [Compound 1049] it is 10 to 999 nM; for `COC(=O)N[C@H](C(=O)N1CCC[C@H]1c1ncc(-c2ccc(C#Cc3ccc(-c4cnc([C@@H]5CCCN5C(=O)[C@@H](c5ccccc5)N5CCC(O)CC5)[nH]4)cc3)cc2)[nH]1)C(C)C` [Compound 956] it is under 1 nM.

Consider `COCCOc1c(C#Cc2ccc3nc([C@@H]4CCCN4C(=O)[C@@H](NC(=O)OC)C(C)C)[nH]c3c2)ccc(-c2cnc([C@@H]3CCCN3C(=O)[C@H](NC(=O)OC)C(C)C)[nH]2)c1OCCOC` [Compound 1066], for which the EC50 was under 1 nM.

`COC(=O)N[C@H](C(=O)N1CCC[C@H]1c1ncc(-c2ccc(C#Cc3ccc(-c4cnc([C@@H]5CCCN5C(=O)[C@@H](NC(=O)OC)C(C)(C)O)[nH]4)cc3)cc2)[nH]1)C(C)(C)O` [Compound 993]: the EC50 is under 1 nM.

Consider `COC(=O)N[C@H](C(=O)N1CCC[C@H]1c1ncc(-c2ccc(C#Cc3ccc4nc([C@@H]5CCCN5C(=O)[C@@H](NC(=O)OC)[C@H](C)O)[nH]c4c3)cc2)[nH]1)[C@H](C)O` [Compound 1031], for which the EC50 is under 1 nM. In the case of `CC(C)[C@H](NC(=O)N1CC[C@H](O)C1)C(=O)N1CCC[C@H]1c1ncc(-c2ccc(C#Cc3ccc(-c4cnc([C@@H]5CCCN5C(=O)[C@@H](NC(=O)N5CC[C@H](O)C5)C(C)C)[nH]4)cc3)cc2)[nH]1` [Compound 988], the EC50 was 10 to 999 nM. On the same count and under the same terms, with `O=C(N[C@@H](C(=O)N1CCC[C@H]1c1ncc(-c2ccc(C#Cc3ccc(-c4cnc([C@@H]5CCCN5C(=O)[C@@H](c5ccccc5)N5CCCCC5)[nH]4)cc3)cc2)[nH]1)c1ccccc1)C1CC1` [Compound 208] the figure was under 1 nM.

With `COC(=O)N[C@@H](C(=O)N1CCC[C@H]1c1ncc(-c2ccc(C#Cc3ccc(-c4cnc([C@@H]5CCCN5C(=O)[C@H](NS(C)(=O)=O)c5ccccc5)[nH]4)cc3)cc2)[nH]1)c1ccccc1` [Compound 225], the EC50 was under 1 nM. The same measure, in the same setting: the figure for `COC(=O)N[C@@H](C)C(=O)N1CCC[C@H]1c1ncc(-c2ccc(C#Cc3ccc(-c4cnc([C@@H]5CCCN5C(=O)[C@@H](c5ccccc5)N5CCOC5=O)[nH]4)cc3)cc2)[nH]1` [Compound 1008] is under 1 nM; for `COC(=O)N[C@H](C(=O)N1CCC[C@H]1c1ncc(-c2ccc(C#Cc3ccc(-c4cnc([C@H](C)NC(=O)[C@@H](C(C)C)N(C)C)[nH]4)cc3)cc2)[nH]1)C(C)C` [Compound 982] it is 10 to 999 nM; for `CC(C)(NC(=O)C1CC1)C(=O)N1CCC[C@H]1c1ncc(C#Cc2ccc(-c3cnc([C@@H]4CCCN4C(=O)C(C)(C)NC(=O)C4CC4)[nH]3)cc2)[nH]1` [Compound 108] it is over 1000 nM. The same measure, in the same setting: with `O=C(N[C@@H](C(=O)N1CCC[C@H]1C(=O)NCc1ccc(C#Cc2ccc(-c3cnc([C@@H]4CCCN4C(=O)[C@H](NC(=O)C4CC4)c4ccccc4)[nH]3)cc2)cc1)c1ccccc1)C1CC1` [Compound 190] the figure was under 1 nM; with `CN(C)C(=O)N[C@@H](C(=O)N1CCC[C@H]1c1ncc(C#Cc2ccc(C#Cc3cnc([C@@H]4CCCN4C(=O)[C@H](NC(=O)N(C)C)c4ccccc4)[nH]3)cc2)[nH]1)c1ccccc1` [Compound 308], under 1 nM. The same measure, in the same setting: the figure for `COC(=O)N[C@H](C(=O)N(C)[C@@H](C)c1ncc(-c2ccc(C#Cc3ccc(-c4cnc([C@@H]5CCCN5C(=O)[C@@H](NC(=O)OC)C(C)C)[nH]4)cc3)cc2)[nH]1)C(C)C` [Compound 267] is under 1 nM. `COC(=O)N[C@@H](C(=O)N1CCC[C@H]1c1ncc(-c2ccc(C#Cc3ccc(-c4cnc([C@@H]5CCCN5C(=O)[C@H](NC(=O)N5CCC[C@H]5CO)c5ccccc5)[nH]4)cc3)cc2)[nH]1)c1ccccc1` [Compound 255]: the EC50 is under 1 nM.

Turning to `COC(=O)N[C@H](C(=O)N1CCC[C@H]1c1ncc(-c2ccc(C#Cc3ccc(-c4cnc([C@@H]5CCCN5C(=O)[C@H](NC(=O)N5CCN(C)CC5)c5ccccc5)[nH]4)cc3)cc2)[nH]1)C(C)C` [Compound 989], the EC50 is under 1 nM. Same read-out and setting: the figure for `COC(=O)N[C@@H](C(=O)N1CCC[C@H]1c1ncc(-c2ccc(C#Cc3ccc(-c4cnc([C@@H]5CCCN5C(=O)Cc5cccnc5)[nH]4)cc3)cc2)[nH]1)c1ccccc1` [Compound 181] is under 1 nM; for `COC(=O)N[C@H](C(=O)N1CCC[C@H]1c1ncc(-c2ccc(C#Cc3ccc(-c4cnc([C@@H]5CCCN5C(=O)[C@@H](c5ccccc5)N5CCN(CCO)CC5)[nH]4)cc3)cc2)[nH]1)C(C)C` [Compound 958] it is under 1 nM; for `COC(=O)N[C@H](C(=O)N[C@@H](C)c1ncc(-c2ccc(C#Cc3ccc(-c4cnc([C@@H]5CCCN5C(=O)[C@H](C(C)C)N(C)C)[nH]4)cc3)cc2)[nH]1)C(C)C` [Compound 963] it is 1 to 9.9 nM. As for `C[C@@H](NC(=O)OC(C)(C)C)C(=O)N1CCC[C@H]1c1ncc(C#Cc2ccc(-c3cnc([C@@H]4CCCN4C(=O)[C@@H](C)NC(=O)OC(C)(C)C)[nH]3)cc2)[nH]1` [Compound 104], the EC50 lay within 1 to 9.9 nM. On the same count and under the same terms, with `COC(=O)N[C@H](C(=O)N1CCC[C@H]1c1ncc(-c2ccc(C#Cc3ccc4nc([C@@H]5CCCN5C(=O)[C@@H](NC(=O)OC)C(C)C)[nH]c4c3)cc2)[nH]1)C(C)C` [Compound 802] the figure was under 1 nM; with `COC(=O)N[C@@H](C(=O)N1CCC[C@H]1c1ncc(C#Cc2ccc(-c3ccc(-c4cnc([C@@H]5CCCN5C(=O)[C@@H](c5ccccc5)N5CCCC5)[nH]4)cc3)cc2)[nH]1)c1ccccc1` [Compound 759], under 1 nM; with `COC(=O)N[C@@H](C(=O)N1CCC[C@H]1c1ncc(-c2ccc(C#Cc3ccc(-c4cnc([C@@H]5CCCN5C(=O)[C@H](NC(=O)N5CCC[C@@H](O)C5)c5ccccc5)[nH]4)cc3)cc2)[nH]1)c1ccccc1` [Compound 264], under 1 nM. On the same count and under the same terms, the figure for `COC(=O)N[C@H](C(=O)N1CCC[C@H]1c1ncc(C#Cc2ccc3cc(C#Cc4cnc([C@@H]5CCCN5C(=O)[C@@H](NC(=O)OC)C(C)C)[nH]4)ccc3c2)[nH]1)C(C)C` [Compound 1114] is under 1 nM.

Staying with this assay, now noted: Hepatitis C virus, Huh-7, read-out: Inhibition of HCV genotype 1b.
Take `COC(=O)N[C@H](C(=O)N1CCN(C(=O)OC)C[C@H]1c1ncc(-c2ccc(C#Cc3ccc4nc([C@@H]5CCCN5C(=O)[C@H](NC(=O)OC5CCOCC5)c5ccccc5)[nH]c4c3)cc2)[nH]1)C(C)C` [Compound 1231]: the EC50 is under 1 nM. Still for that read-out and setting: the figure for `COC(=O)N[C@H](C(=O)N1CCN(C(=O)OC)C[C@H]1c1ncc(-c2ccc(C#Cc3ccc4nc([C@@H]5CCCN5C(=O)[C@@H](NC(=O)OC)C5CCOCC5)[nH]c4c3)cc2)[nH]1)C(C)C` [Compound 1229] is under 1 nM; for `COC(=O)N[C@H](C(=O)N1CCC[C@H]1c1nc(C)c(C#Cc2ccc3cc(-c4cnc([C@@H]5CCCN5C(=O)[C@@H](NC(=O)OC)[C@@H](C)OC)[nH]4)ccc3c2)[nH]1)C1CCCC1` [Compound 1266] it is under 1 nM. On the same count and under the same terms, the figure for `COC(=O)N[C@H](C(=O)N1CCC[C@H]1c1nc(C#N)c(C#Cc2ccc3cc(-c4cnc([C@@H]5CCCN5C(=O)[C@@H](NC(=O)OC)[C@@H](C)OC)[nH]4)ccc3c2)[nH]1)C1CCCC1` [Compound 1270] is under 1 nM; for `COC(=O)N[C@H](C(=O)N1CCC[C@H]1c1nc2ccc(C#Cc3ccc(-c4cnc([C@@H]5CCCN5C(=O)[C@@H](NC(=O)OC)[C@@H](C)OC)[nH]4)cc3)cc2[nH]1)C(C)C` [Compound 1235] it is under 1 nM; for `COC(=O)N[C@H](C(=O)N1CCC[C@H]1c1ncc(-c2ccc3cc(C#Cc4[nH]c([C@@H]5CCCN5C(=O)[C@@H](NC(=O)OC)C(C)C)nc4C#N)ccc3c2)[nH]1)C(C)C` [Compound 1257] it is under 1 nM.

`COC(=O)N[C@H](C(=O)N1CCC[C@H]1c1nc2c([nH]1)-c1ccc(C#Cc3ccc4nc([C@@H]5CCCN5C(=O)[C@@H](NC(=O)OC)C5CCOCC5)[nH]c4c3)cc1CCC2)C(C)C` [Compound 1280]: the EC50 was under 1 nM. Same read-out and setting: the figure for `COC(=O)N[C@H](C(=O)N1CCC[C@H]1c1ncc(-c2ccc(C#Cc3ccc(-c4cnc([C@@H]5CCCN5C(=O)[C@@H](NC(=O)OC)C5CCOCC5)[nH]4)cc3)cc2)[nH]1)C(C)C` [Compound 1219] is under 1 nM; for `COC(=O)N[C@H](C(=O)N1CCC[C@H]1c1nc(C(F)(F)F)c(C#Cc2ccc3cc(-c4cnc([C@@H]5CCCN5C(=O)[C@@H](NC(=O)OC)[C@@H](C)OC)[nH]4)ccc3c2)[nH]1)C1CCCC1` [Compound 1263] it is under 1 nM; for `CC[C@H](NC(=O)OC)C(=O)N1CCC[C@H]1c1nc2ccc(C#Cc3ccc(-c4cnc([C@@H]5CCCN5C(=O)[C@@H](NC(=O)OC)[C@@H](C)OC)[nH]4)cc3)cc2[nH]1` [Compound 1245] it is under 1 nM.
